From patent US12083109B2, “Neurokinin antagonists and uses thereof” (California Institute of Technology, priority 2017, dated 2024)
“Also recorded” adds a separate entry of the source.

Key:
[1] = biological target: T1, hM3DREADD in Tac2+ neurons (Homo sapiens, UniProt P20309, A239G/Y149C); test: Behavioral assays in group housed Tac2-Cre mice, CNO activation (hM3DREADD) with or without Tac2 cDNA; assay type: in vivo, mouse
T1 construct: host or cells: Tac2+ neurons of group-housed Tac2-Cre mice, transduced in vivo by intravenous AAV-PHP.B-hSyn-DIO-hM3D-mCherry, with or without the Tac2 cDNA virus
T1 sequence (P20309 whole entry Y149C/A239G): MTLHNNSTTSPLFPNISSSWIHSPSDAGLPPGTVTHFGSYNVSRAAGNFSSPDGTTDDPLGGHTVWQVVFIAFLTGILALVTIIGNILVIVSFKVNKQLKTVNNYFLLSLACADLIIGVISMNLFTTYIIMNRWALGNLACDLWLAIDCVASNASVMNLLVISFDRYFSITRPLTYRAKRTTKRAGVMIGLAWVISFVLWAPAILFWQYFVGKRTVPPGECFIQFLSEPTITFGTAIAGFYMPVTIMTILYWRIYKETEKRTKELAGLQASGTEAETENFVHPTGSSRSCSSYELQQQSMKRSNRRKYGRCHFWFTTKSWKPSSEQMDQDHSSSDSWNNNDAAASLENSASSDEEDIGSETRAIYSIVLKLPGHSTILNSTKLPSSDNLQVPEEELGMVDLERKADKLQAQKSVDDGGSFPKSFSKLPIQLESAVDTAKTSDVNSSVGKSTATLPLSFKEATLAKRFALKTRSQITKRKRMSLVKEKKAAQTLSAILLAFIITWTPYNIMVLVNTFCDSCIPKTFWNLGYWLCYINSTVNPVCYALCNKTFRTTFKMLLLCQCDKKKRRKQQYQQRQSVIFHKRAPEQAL
Procedure: The AAV-hSyn-DIO-Tac2-P2A-mCherry, AAV-hSyn-DIO-hM3D-mCherry, and AAV-hSyn-DIO-mCherry recombinant AAV genomes were separately packaged into the AAV-PHP.B capsid by triple transfection of HEK293T cells and purified with iodixanol step gradients as previously described (Deverman et al., 2016; incorporated by reference in its entirety). 5×10^11 vector genomes (vg) of each virus were administered intravenously (via the retro-orbital sinus) to Tac2-Cre animals individually or in combination. To equalize the amount of virus given to each mouse, 5×10^11 vg of AAV-PHP.B-hSyn-DIO-mCherry was administered to each animal to bring the amount of virus up to the amount injected in the double Tac2^+ hM3DREAAD group. Each animal received a total vector dose of 1×10^12 vg.
(§1) Mice were administered the Nk3R antagonist osanetant (Axon Medchem, Axon 1533) either systemically or intra-brain region. Osanctant was dissolved in saline with 0.1% Tween 20 (vehicle). For systemic administration mice received an intraperitoneal (i.p.) injection (5 mg/kg) 20 minutes prior to behavioral testing. For microinfusions, guide cannulas were removed from mice and replaced with injector cannulas (Plastics One), which protruded 0.5 mm from the tip of the guide cannula. Injectors were attached to 5 μl Hamilton syringes with PE tubing (Plastics One) and mounted on a microinfusion pump (Harvard Apparatus) for controlled infusion of osanetant (0.3 μl vehicle with 375 ng dose per site injected over 6 minutes). For experiments using systemic administration of clozapine-N-oxide (CNO), CNO (Enzo Life Sciences-Biomol, BML-NS105-0005) was dissolved in saline (9 g/L NaCl) and injected (i.p.) at 5 mg/kg for hM4DREADD silencing or 2 mg/kg for hM3DREADD activation 20 minutes prior to behavioral testing. CNO was also administered chronically in drinking water (0.5 mg CNO/100 ml water).
These viruses were intravenously injected (individually or in combination) into GH Tac2-Cre mice (FIGS. 14A-T). […]

Nk3R = biological target: T2, Nk3R (Mus musculus, UniProt P47937); test: Acoustic startle response, osanetant; assay type: in vivo; parameters: from tissue; host or cells: Living mice (wild-type C57Bl6/N males, Charles River); conditions: SIS mice; acute systemic osanetant; listed as Osanetant
T2 sequence (P47937 1-452): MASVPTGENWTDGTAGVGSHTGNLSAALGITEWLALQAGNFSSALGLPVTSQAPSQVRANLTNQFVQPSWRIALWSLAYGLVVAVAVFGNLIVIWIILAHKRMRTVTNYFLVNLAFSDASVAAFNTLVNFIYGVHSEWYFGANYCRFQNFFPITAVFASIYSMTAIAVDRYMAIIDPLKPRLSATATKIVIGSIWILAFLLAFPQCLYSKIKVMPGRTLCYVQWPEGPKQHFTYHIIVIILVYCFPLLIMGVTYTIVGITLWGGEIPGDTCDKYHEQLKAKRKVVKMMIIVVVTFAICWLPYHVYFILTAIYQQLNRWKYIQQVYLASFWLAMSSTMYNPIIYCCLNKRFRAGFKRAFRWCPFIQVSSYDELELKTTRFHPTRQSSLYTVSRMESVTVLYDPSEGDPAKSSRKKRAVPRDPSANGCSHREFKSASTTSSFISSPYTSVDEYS
Procedure: as §1

SIS-induced enhanced acoustic startle responding (Nk3R) | SMILES | SIS-like behavioral effects (increased aggression, persistent freezing to threats) ([1]; group housed Tac2-Cre mice, Tac2 cDNA plus hM3DREADD viruses, CNO in drinking water 2 weeks and 2 mg/kg i.p. before test) | SIS-like behavioral effects ([1]; group housed Tac2-Cre mice, activation of Tac2+ neurons on its own (hM3DREADD, CNO)) | SIS-like behavioral effects ([1]; group housed control mice, mCherry-only virus, treated with CNO)
– | C[N+]1([O-])CCN(C2=Nc3cc(Cl)ccc3Nc3ccccc32)CC1 [CNO, clozapine-N-oxide] | recapitulated key behavioral effects of SIS | insufficient | No such effects
blocked; also recorded: attenuated | CC(=O)N(C)C1(c2ccccc2)CCN(CCC[C@]2(c3ccc(Cl)c(Cl)c3)CCCN(C(=O)c3ccccc3)C2)CC1 [osanetant, N-(1-{3-[(3R)-1-benzoyl-3-(3,4-dichlorophenyl)piperidin-3-yl]propyl}-4-phenylpiperidin-4-yl)-N-methylacetamide] | – | – | –
